Laboratory results from PubChem BioAssay (NCI).
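The compound was tested at five concentrations on cells cultured in 96-well plates, with a 48-hour exposure period. GI50 is the concentration that inhibits growth by half. Definition used: TGI = concentration required for complete inhibition of growth.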

Tests used:
Assay in all cases: DTP human tumour cell line panel, 48 h
[1] = test system: 786-0 renal
[2] = test system: A498 renal
[3] = test system: A549 NSCLC
[4] = test system: ACHN renal
[5] = test system: BT-549 breast
[6] = test system: CAKI-1 renal
[7] = test system: CCRF-CEM leukemia
[8] = test system: COLO 205 colon
[9] = test system: DU-145 prostate
[10] = test system: EKVX NSCLC
[11] = test system: HCC-2998 colon
[12] = test system: HCT-116 colon
[13] = test system: HCT-15 colon
[14] = test system: HL-60(TB) leukemia
[15] = test system: HOP-62 NSCLC
[16] = test system: HOP-92 NSCLC
[17] = test system: HS 578T breast
[18] = test system: HT29 colon
[19] = test system: IGROV1 ovarian
[20] = test system: K-562 leukemia
[21] = test system: KM12 colon
[22] = test system: LOX IMVI melanoma
[23] = test system: M14 melanoma
[24] = test system: MALME-3M melanoma
[25] = test system: MCF7 breast
[26] = test system: MDA-MB-231 breast
[27] = test system: MDA-MB-435
[28] = test system: MDA-MB-468 breast
[29] = test system: MOLT-4 leukemia
[30] = test system: NCI-H226 lung
[31] = test system: NCI-H23 lung
[32] = test system: NCI-H460 lung
[33] = test system: NCI-H522 lung
[34] = test system: NCI/ADR-RES ovarian
[35] = test system: OVCAR-3 ovarian
[36] = test system: OVCAR-4 ovarian
[37] = test system: OVCAR-5 ovarian
[38] = test system: OVCAR-8 ovarian
[39] = test system: PC-3 prostate
[40] = test system: RPMI-8226 leukemia
[41] = test system: RXF 393 renal
[42] = test system: SF-268 CNS
[43] = test system: SF-295 CNS
[44] = test system: SF-539 CNS
[45] = test system: SK-MEL-2 melanoma
[46] = test system: SK-MEL-28 melanoma
[47] = test system: SK-MEL-5 melanoma
[48] = test system: SK-OV-3 ovarian
[49] = test system: SN12C renal
[50] = test system: SNB-19 CNS
[51] = test system: SNB-75 CNS
[52] = test system: SR leukemia
[53] = test system: SW-620 colon
[54] = test system: T-47D breast
[55] = test system: TK-10 renal
[56] = test system: U251 CNS
[57] = test system: UACC-257 melanoma
[58] = test system: UACC-62 melanoma
[59] = test system: UO-31 renal

O=C(CSc1nnc(-c2ccc3nc(-c4ccc(Cl)cc4)[nH]c3c2)o1)Nc1ccc(Br)cc1 gave a GI50 [1] of 2.13 µM, a TGI [1] of 4.76 µM and a GI50 [2] of 18.8 µM. The TGI [2] was 34.8 µM, the GI50 [3] was 3.89 µM and the TGI [3] was 19.8 µM. It also gave a GI50 [4] of 3.47 µM, a TGI [4] of 12.5 µM and a GI50 [5] of 2.66 µM. It also gave a TGI [5] of 6.12 µM, a GI50 [6] of 3.74 µM and a TGI [6] of 14.9 µM. For the same compound, the GI50 [7] was 3.33 µM, the TGI [7] was 20.4 µM and the GI50 [8] was 12.8 µM. The TGI [8] was 27.5 µM, the GI50 [9] was 5.83 µM and the TGI [9] was 19.1 µM. For the same compound, the GI50 [10] was 9.52 µM, the TGI [10] was 21.6 µM and the GI50 [11] was 8.56 µM. For the same compound, the TGI [11] was 20.9 µM, the GI50 [12] was 2.78 µM and the TGI [12] was 7.81 µM. For the same compound, the GI50 [13] was 4.18 µM, the TGI [13] was 16.3 µM and the GI50 [14] was 2.91 µM. It also gave a TGI [14] of 15.6 µM, a GI50 [15] of 5.96 µM and a TGI [15] of 20.2 µM. For the same compound, the GI50 [16] was 3.55 µM, the TGI [16] was 15.7 µM and the GI50 [17] was 4.09 µM. For the same compound, the TGI [17] was 24.7 µM, the GI50 [18] was 5.66 µM and the TGI [18] was 27.3 µM. For the same compound, the GI50 [19] was 10.6 µM, the TGI [19] was 23 µM and the GI50 [20] was 3.2 µM. The TGI [20] was 15.1 µM, the GI50 [21] was 10.4 µM and the TGI [21] was 41.5 µM. The GI50 [22] was 1.63 µM, the TGI [22] was 2.98 µM and the GI50 [23] was 2.56 µM. For the same compound, the TGI [23] was 6.09 µM, the GI50 [24] was 3.83 µM and the TGI [24] was 15.4 µM. For the same compound, the GI50 [25] was 3.86 µM, the TGI [25] was 17.7 µM and the GI50 [26] was 2.37 µM. It also gave a TGI [26] of 6.07 µM, a GI50 [27] of 2.9 µM and a TGI [27] of 9.3 µM. It also gave a GI50 [28] of 5.31 µM, a TGI [28] of 17.6 µM and a GI50 [29] of 3.19 µM. The TGI [29] was 15.4 µM, the GI50 [30] was 3.45 µM and the TGI [30] was 16 µM. For the same compound, the GI50 [31] was 2.4 µM, the TGI [31] was 6.17 µM and the GI50 [32] was 2.39 µM. The TGI [32] was 5.78 µM, the GI50 [33] was 4.73 µM and the TGI [33] was 19.8 µM. It also gave a GI50 [34] of 4.31 µM, a TGI [34] of 15.7 µM and a GI50 [35] of 11.3 µM. For the same compound, the TGI [35] was 28.2 µM, the GI50 [36] was 6.65 µM and the TGI [36] was 26.7 µM. It also gave a GI50 [37] of 14.2 µM, a TGI [37] of 29.5 µM and a GI50 [38] of 3.9 µM. The TGI [38] was 19.4 µM, the GI50 [39] was 3.28 µM and the TGI [39] was 16.6 µM. For the same compound, the GI50 [40] was 8.26 µM, the TGI [40] was 86.3 µM and the GI50 [41] was 2.6 µM. It also gave a TGI [41] of 8.42 µM, a GI50 [42] of 5.66 µM and a TGI [42] of 22.3 µM. It also gave a GI50 [43] of 6.17 µM, a TGI [43] of 19.2 µM and a GI50 [44] of 2.86 µM. For the same compound, the TGI [44] was 9.19 µM, the GI50 [45] was 4.74 µM and the TGI [45] was 18.4 µM. It also gave a GI50 [46] of 5.04 µM, a TGI [46] of 17.5 µM and a GI50 [47] of 3.69 µM. The TGI [47] was 13.6 µM, the GI50 [48] was 16.5 µM and the TGI [48] was 31.7 µM. It also gave a GI50 [49] of 2.91 µM, a TGI [49] of 11.2 µM and a GI50 [50] of 4.2 µM. For the same compound, the TGI [50] was 14.6 µM, the GI50 [51] was 2.36 µM and the TGI [51] was 14.1 µM. The GI50 [52] was 9.89 µM, the TGI [52] was > 100 µM and the GI50 [53] was 4.99 µM. It also gave a TGI [53] of 18.5 µM, a GI50 [54] of 18.3 µM and a TGI [54] of 65.8 µM. For the same compound, the GI50 [55] was 20.2 µM, the TGI [55] was 36.8 µM and the GI50 [56] was 2.69 µM. It also gave a TGI [56] of 6.66 µM, a GI50 [57] of 5.65 µM and a TGI [57] of 20.5 µM. The GI50 [58] was 4.63 µM, the TGI [58] was 16.8 µM and the GI50 [59] was 11.8 µM. It also gave a TGI [59] of 24 µM.
